# Test results taken from US7396837B2, “Antitumoral analogs of lamellarins” (Pharma Mar, S.A.U., priority 2002, dated 2008).
# Key:
# Type in all cases: cell-based
# [1] = tested on: DU-145; test: SRB colorimetric cell growth inhibition assay, DU-145; conditions: Homo sapiens, DU-145, DU-145
# How it was run: (§1)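 Quantitation uses the sulforhodamine B reaction on cells exposed to sample for the whole assay period; results (mean ± SD, n = 3 wells) yield GI, TGI and LC.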
# [2] = tested on: IGROV-ET; test: SRB colorimetric cell growth inhibition assay, IGROV-ET (ET-743 resistant); conditions: Homo sapiens, IGROV-ET
# How it was run: as §1
# [3] = tested on: LoVo-Dox; test: SRB colorimetric cell growth inhibition assay, LoVo-Dox (MDR); conditions: Homo sapiens, LOVO-DOX
# How it was run: as §1
# [4] = tested on: A-549; test: SRB colorimetric cell growth inhibition assay, A-549; conditions: Homo sapiens, A549, A-549
# How it was run: as §1
# [5] = tested on: HeLa-APL; test: SRB colorimetric cell growth inhibition assay, HeLa-APL (aplidine resistant); conditions: Homo sapiens, HELA-APL
# How it was run: as §1
# [6] = tested on: K-562; test: SRB colorimetric cell growth inhibition assay, K-562; conditions: Homo sapiens, K562, K-562
# How it was run: as §1
# [7] = tested on: IGROV; test: SRB colorimetric cell growth inhibition assay, IGROV; conditions: Homo sapiens, IGROV
# How it was run: as §1
# [8] = tested on: HeLa; test: SRB colorimetric cell growth inhibition assay, HeLa; conditions: Homo sapiens, HeLa
# How it was run: as §1
# [9] = tested on: PANC-1; test: SRB colorimetric cell growth inhibition assay, PANC-1; conditions: Homo sapiens, PANC-1, PANC-1
# How it was run: as §1
# [10] = tested on: HT-29; test: SRB colorimetric cell growth inhibition assay, HT-29; conditions: Homo sapiens, HT-29, HT-29
# How it was run: as §1
# [11] = tested on: LNCaP; test: SRB colorimetric cell growth inhibition assay, LNCaP; conditions: Homo sapiens, LNCaP, LN-caP
# How it was run: as §1
# [12] = tested on: SK-BR-3; test: SRB colorimetric cell growth inhibition assay, SK-BR-3; conditions: Homo sapiens, SK-BR-3, SK-BR-3
# How it was run: as §1
# [13] = tested on: LoVo; test: SRB colorimetric cell growth inhibition assay, LoVo; conditions: Homo sapiens, LoVo
# How it was run: as §1
# [14] = tested on: SK-MEL-28; test: SRB colorimetric cell growth inhibition assay, SK-MEL-28; conditions: Homo sapiens, SK-MEL-28, MEL-28
# How it was run: as §1
structure (smiles),measurement,setting,value
COc1cc(-c2c3c4cc(OC)c(OC(=O)[C@@H](N)C(C)C)cc4oc(=O)c3n3ccc4cc(OC(=O)[C@@H](N)C(C)C)c(OC)cc4c23)ccc1OC(=O)[C@@H](N)C(C)C [Compound 195],GI50,"[1]; GI=growth inhibition, read-out: GI50 DU-145",13.7 nM
same,CC50,"[1]; cell killing (cytotoxic effect), read-out: LC50 DU-145",58.5 nM
same,IC (TGI),"[1]; total growth inhibition (cytostatic effect), read-out: TGI DU-145",28.4 nM
same,GI50,"[2]; GI=growth inhibition, read-out: GI50 IGROV-ET",41.7 nM
same,CC50,"[2]; cell killing (cytotoxic effect), read-out: LC50 IGROV-ET",2740 nM
same,IC (TGI),"[2]; total growth inhibition (cytostatic effect), read-out: TGI IGROV-ET",215 nM
same,GI50,"[3]; GI=growth inhibition, read-out: GI50 LOVO-DOX",106 nM
same,CC50,"[3]; cell killing (cytotoxic effect), read-out: LC50 LOVO-DOX",2500 nM
same,IC (TGI),"[3]; total growth inhibition (cytostatic effect), read-out: TGI LOVO-DOX",500 nM
same,GI50,"[4]; GI=growth inhibition, read-out: GI50 A-549",113 nM
same,CC50,"[4]; cell killing (cytotoxic effect), read-out: LC50 A-549",11000 nM
same,IC (TGI),"[4]; total growth inhibition (cytostatic effect), read-out: TGI A-549",1150 nM
same,GI50,"[5]; GI=growth inhibition, read-out: GI50 HELA-APL",87.6 nM
same,CC50,"[5]; cell killing (cytotoxic effect), read-out: LC50 HELA-APL",536 nM
same,IC (TGI),"[5]; total growth inhibition (cytostatic effect), read-out: TGI HELA-APL",234 nM
same,GI50,"[6]; GI=growth inhibition, read-out: GI50 K-562",11.7 nM
same,CC50,"[6]; cell killing (cytotoxic effect), read-out: LC50 K-562",170 nM
same,IC (TGI),"[6]; total growth inhibition (cytostatic effect), read-out: TGI K-562",40.9 nM
same,GI50,"[7]; GI=growth inhibition, read-out: GI50 IGROV",25 nM
same,CC50,"[7]; cell killing (cytotoxic effect), read-out: LC50 IGROV",855 nM
same,IC (TGI),"[7]; total growth inhibition (cytostatic effect), read-out: TGI IGROV",145 nM
same,GI50,"[8]; GI=growth inhibition, read-out: GI50 HELA",51.3 nM
same,CC50,"[8]; cell killing (cytotoxic effect), read-out: LC50 HELA",633 nM
same,IC (TGI),"[8]; total growth inhibition (cytostatic effect), read-out: TGI HELA",204 nM
same,GI50,"[9]; GI=growth inhibition, read-out: GI50 PANC-1",56.9 nM
same,CC50,"[9]; cell killing (cytotoxic effect), read-out: LC50 PANC-1",3110 nM
same,IC (TGI),"[9]; total growth inhibition (cytostatic effect), read-out: TGI PANC-1",363 nM
same,GI50,"[10]; GI=growth inhibition, read-out: GI50 HT-29",2150 nM
same,CC50,"[10]; cell killing (cytotoxic effect), read-out: LC50 HT-29",8620 nM
same,IC (TGI),"[10]; total growth inhibition (cytostatic effect), read-out: TGI HT-29",4310 nM
same,GI50,"[11]; GI=growth inhibition, read-out: GI50 LN-caP",22.1 nM
same,CC50,"[11]; cell killing (cytotoxic effect), read-out: LC50 LN-caP",365 nM
same,IC (TGI),"[11]; total growth inhibition (cytostatic effect), read-out: TGI LN-caP",86.4 nM
same,GI50,"[12]; GI=growth inhibition, read-out: GI50 SK-BR-3",45.5 nM
same,CC50,"[12]; cell killing (cytotoxic effect), read-out: LC50 SK-BR-3",840 nM
same,IC (TGI),"[12]; total growth inhibition (cytostatic effect), read-out: TGI SK-BR-3",89.8 nM
same,GI50,"[13]; GI=growth inhibition, read-out: GI50 LOVO",150 nM
same,CC50,"[13]; cell killing (cytotoxic effect), read-out: LC50 LOVO",783 nM
same,IC (TGI),"[13]; total growth inhibition (cytostatic effect), read-out: TGI LOVO",342 nM
same,GI50,"[14]; GI=growth inhibition, read-out: GI50 MEL-28",44.1 nM
same,CC50,"[14]; cell killing (cytotoxic effect), read-out: LC50 MEL-28",1940 nM
same,IC (TGI),"[14]; total growth inhibition (cytostatic effect), read-out: TGI MEL-28",159 nM
